Assays:
NCI-H358 (K-Ras G12C) = assay: CellTiter-Glo cell viability assay, 5-day treatment; type: cell-based; settings: Homo sapiens, NCI-H358, 120 h, 5-day treatment; read-out: H358 Cell Viability assay data (K-Ras G12C, IC50)
Summary of the method: (§1)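 Five-day compound treatment of plated cells; luminescent read after ~30 min at RT. Percent-of-DMSO data fit to a four-parameter logistic model.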

Capan-1 (K-Ras G12V) = assay: as above; type: cell-based; settings: Homo sapiens, CAPAN-1, 120 h, 5-day treatment; read-out: Capan-1 Cell Viability assay data (K-Ras G12V, IC50)
Summary of the method: as §1

NRAS WT = NRAS WT (Homo sapiens, UniProt P01111+P62937); assay: Disruption of BRAF RBD interaction with Ras (FRET / MOA assay, with Cyclophilin A); type: biochemical; settings: NRAS WT; read-out: NRAS WT FRET data IC50
Summary of the method: (§2)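 IC50 reflects compound-driven Ras:Cyclophilin A ternary complex displacing BRAF RBD, read as lowered TR-FRET ratio relative to DMSO after Eu anti-His (10 nM) and APC anti-GST (50 nM) detection for 1.5 h. Prior incubation 3 h, 25° C, with 12.5 nM GMPPNP-loaded Ras, 50 nM BRAF RBD, 25 μM Cyclophilin A; top compound 30 μM.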

KRAS Q61H = KRAS Q61H (Homo sapiens, UniProt P01116+P62937, Q61H); assay: as above; type: biochemical; settings: KRAS Q61H; read-out: KRAS Q61H FRET data IC50
Summary of the method: as §2

NRAS Q61R = NRAS Q61R (Homo sapiens, UniProt P01111+P62937, Q61R); assay: as above; type: biochemical; settings: NRAS Q61R; read-out: NRAS Q61R FRET data IC50
Summary of the method: as §2

NRAS Q61K = NRAS Q61K (Homo sapiens, UniProt P01111+P62937, Q61K); assay: as above; type: biochemical; settings: NRAS Q61K; read-out: NRAS Q61K FRET data IC50
Summary of the method: as §2

KRAS WT = KRAS WT (Homo sapiens, UniProt P01116+P62937); assay: as above; type: biochemical; settings: KRAS WT; read-out: KRAS WT FRET data IC50
Summary of the method: (§3)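 IC50 values reflect loss of K-Ras binding to BRAF RBD, read as a lowered TR-FRET ratio compared with DMSO, driven by compound-mediated K-Ras:Cyclophilin A complex formation. Compound top dose 30 μM final, 3-fold steps, 3 h incubation at 25 °C before a 1.5 h antibody step.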

NRAS G12C = NRAS G12C (Homo sapiens, UniProt P01111+P62937, G12C); assay: as above; type: biochemical; settings: NRAS G12C; read-out: NRAS G12C FRET data IC50
KRAS G13D = KRAS G13D (Homo sapiens, UniProt P01116+P62937, G13D); assay: as above; type: biochemical; settings: KRAS G13D; read-out: KRAS G13D FRET data IC50
Summary of the method: as §3

KRAS G12D = KRAS G12D (Homo sapiens, UniProt P01116+P62937, G12D); assay: as above; type: biochemical; settings: read-out: KRAS G12D FRET data, IC50
Summary of the method: as §3

KRAS G13C = KRAS G13C (Homo sapiens, UniProt P01116+P62937, G13C); assay: as above; type: biochemical; settings: read-out: KRAS G13C FRET data, IC50
Summary of the method: as §3

KRAS G12S = KRAS G12S (Homo sapiens, UniProt P01116+P62937, G12S); assay: as above; type: biochemical; settings: read-out: KRAS G12S FRET data, IC50
Summary of the method: as §3

KRAS G12C = KRAS G12C (Homo sapiens, UniProt P01116+P62937, G12C); assay: as above; type: biochemical; settings: read-out: KRAS G12C FRET data, IC50
Summary of the method: as §3

KRAS G12V = KRAS G12V (Homo sapiens, UniProt P01116+P62937, G12V); assay: as above; type: biochemical; settings: KRAS G12V; read-out: KRAS G12V FRET data IC50
Summary of the method: as §3

KRAS WT, sequence (P01116 1-169 isoform P01116-2 limits assumed): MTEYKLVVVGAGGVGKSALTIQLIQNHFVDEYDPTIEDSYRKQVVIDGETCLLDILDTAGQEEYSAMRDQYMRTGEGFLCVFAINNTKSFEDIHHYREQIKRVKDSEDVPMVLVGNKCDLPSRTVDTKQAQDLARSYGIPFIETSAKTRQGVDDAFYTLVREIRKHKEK
KRAS WT, sequence (P62937 whole entry): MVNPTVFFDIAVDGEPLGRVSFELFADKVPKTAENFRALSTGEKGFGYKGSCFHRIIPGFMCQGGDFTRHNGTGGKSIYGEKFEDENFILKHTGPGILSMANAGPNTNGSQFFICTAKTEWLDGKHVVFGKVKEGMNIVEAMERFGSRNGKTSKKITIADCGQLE
NRAS G12C, sequence (P01111 whole entry G12C): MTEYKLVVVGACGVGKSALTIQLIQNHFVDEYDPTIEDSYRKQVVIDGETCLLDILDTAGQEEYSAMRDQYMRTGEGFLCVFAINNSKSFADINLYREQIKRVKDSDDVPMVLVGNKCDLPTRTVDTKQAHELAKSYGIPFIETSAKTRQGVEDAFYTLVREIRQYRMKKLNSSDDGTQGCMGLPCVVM
NRAS G12C, sequence (P62937 whole entry): as the sequence (P62937 whole entry) above
KRAS G12V, sequence (P01116 1-169 isoform P01116-2 G12V limits assumed): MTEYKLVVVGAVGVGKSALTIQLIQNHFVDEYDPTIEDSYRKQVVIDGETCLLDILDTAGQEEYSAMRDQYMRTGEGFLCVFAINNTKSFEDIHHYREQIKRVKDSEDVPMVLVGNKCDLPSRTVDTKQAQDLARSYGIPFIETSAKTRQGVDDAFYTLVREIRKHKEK
KRAS G12V, sequence (P62937 whole entry): as the sequence (P62937 whole entry) above
KRAS G12D, sequence (P01116 1-169 isoform P01116-2 G12D limits assumed): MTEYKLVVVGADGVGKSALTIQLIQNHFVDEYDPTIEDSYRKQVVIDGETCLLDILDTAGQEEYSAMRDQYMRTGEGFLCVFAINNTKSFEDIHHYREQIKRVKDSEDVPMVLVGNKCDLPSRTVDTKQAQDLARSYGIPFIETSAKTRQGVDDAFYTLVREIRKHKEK
KRAS G12D, sequence (P62937 whole entry): as the sequence (P62937 whole entry) above
NRAS Q61K, sequence (P01111 whole entry Q61K): as the sequence (P01111 whole entry G12C) above, with C12G, Q61K counted along it
NRAS Q61K, sequence (P62937 whole entry): as the sequence (P62937 whole entry) above
KRAS G12C, sequence (P01116 1-169 isoform P01116-2 G12C): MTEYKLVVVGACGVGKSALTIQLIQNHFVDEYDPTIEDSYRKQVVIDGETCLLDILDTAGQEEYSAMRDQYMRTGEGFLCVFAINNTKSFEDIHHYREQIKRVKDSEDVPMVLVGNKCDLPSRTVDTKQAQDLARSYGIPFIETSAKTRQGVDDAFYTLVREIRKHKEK
KRAS G12C, sequence (P62937 whole entry): as the sequence (P62937 whole entry) above
KRAS G13C, sequence (P01116 1-169 isoform P01116-2 G13C): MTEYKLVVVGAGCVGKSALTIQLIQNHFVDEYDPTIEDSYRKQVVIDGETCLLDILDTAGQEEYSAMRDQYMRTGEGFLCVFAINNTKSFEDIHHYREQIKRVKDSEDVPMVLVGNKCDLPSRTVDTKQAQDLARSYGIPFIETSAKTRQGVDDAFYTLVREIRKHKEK
KRAS G13C, sequence (P62937 whole entry): as the sequence (P62937 whole entry) above
NRAS WT, sequence (P01111 whole entry): as the sequence (P01111 whole entry G12C) above, with C12G counted along it
NRAS WT, sequence (P62937 whole entry): as the sequence (P62937 whole entry) above
KRAS G12S, sequence (P01116 1-169 isoform P01116-2 G12S limits assumed): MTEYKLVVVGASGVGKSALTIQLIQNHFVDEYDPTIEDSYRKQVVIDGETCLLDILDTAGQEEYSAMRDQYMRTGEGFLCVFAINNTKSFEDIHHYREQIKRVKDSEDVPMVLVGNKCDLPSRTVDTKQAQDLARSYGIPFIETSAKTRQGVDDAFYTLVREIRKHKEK
KRAS G12S, sequence (P62937 whole entry): as the sequence (P62937 whole entry) above
NRAS Q61R, sequence (P01111 whole entry Q61R): as the sequence (P01111 whole entry G12C) above, with C12G, Q61R counted along it
NRAS Q61R, sequence (P62937 whole entry): as the sequence (P62937 whole entry) above
KRAS G13D, sequence (P01116 1-169 isoform P01116-2 G13D limits assumed): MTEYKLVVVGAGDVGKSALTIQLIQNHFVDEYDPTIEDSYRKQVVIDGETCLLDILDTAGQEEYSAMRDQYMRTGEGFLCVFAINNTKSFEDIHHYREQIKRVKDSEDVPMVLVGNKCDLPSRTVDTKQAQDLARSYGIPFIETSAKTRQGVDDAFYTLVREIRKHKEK
KRAS G13D, sequence (P62937 whole entry): as the sequence (P62937 whole entry) above
KRAS Q61H, sequence (P01116 1-169 isoform P01116-2 Q61H limits assumed): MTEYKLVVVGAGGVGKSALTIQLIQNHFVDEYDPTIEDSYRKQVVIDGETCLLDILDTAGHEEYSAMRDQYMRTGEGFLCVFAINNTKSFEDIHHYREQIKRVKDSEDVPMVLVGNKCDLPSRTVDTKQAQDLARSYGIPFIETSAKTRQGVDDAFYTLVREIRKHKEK
KRAS Q61H, sequence (P62937 whole entry): as the sequence (P62937 whole entry) above

SMILES	IC50 (NCI-H358 (K-Ras G12C)) [nM]	IC50 (NRAS WT) [nM]	IC50 (KRAS Q61H) [nM]	IC50 (NRAS Q61R) [nM]	IC50 (NRAS Q61K) [nM]	IC50 (KRAS WT) [nM]	IC50 (NRAS G12C) [nM]	IC50 (KRAS G13D) [nM]	IC50 (KRAS G12D) [nM]	IC50 (KRAS G13C) [nM]	IC50 (KRAS G12S) [nM]	IC50 (KRAS G12C) [nM]	IC50 (KRAS G12V) [nM]	IC50 (Capan-1 (K-Ras G12V)) [nM]
CCn1c(-c2cccnc2[C@H](C)OC)c2c3cc(ccc31)-c1csc(n1)C[C@H](NC(=O)C1(F)COC1)C(=O)N1CCC[C@H](N1)C(=O)OCC(C)(C)C2 [Example A320]	1000 to 10000	100 to 1000	100 to 1000	1000 to 10000	100 to 1000	100 to 1000	100 to 1000	1000 to 10000	1000 to 10000	100 to 1000	100 to 1000	100 to 1000	100 to 1000	100 to 1000
CCn1c(-c2cccnc2[C@H](C)OC)c2c3cc(ccc31)-c1csc(n1)C[C@H](NC(=O)[C@@H](OC(=O)N1CC(OC)C1)C(C)C)C(=O)N1CCC[C@H](N1)C(=O)OCC(C)(C)C2 [Example A354]	100 to 1000	100 to 1000	100 to 1000	100 to 1000	100 to 1000	100 to 1000	100 to 1000	1000 to 10000	1000 to 10000	100 to 1000	100 to 1000	100 to 1000	100 to 1000	100 to 1000
CCn1c(-c2cccnc2[C@H](C)OC)c2c3cc(ccc31)-c1csc(n1)C[C@H](NC(=O)[C@H]1CCO1)C(=O)N1CCC[C@H](N1)C(=O)OCC(C)(C)C2 [Example A360]	100 to 1000	100 to 1000	100 to 1000	1000 to 10000	100 to 1000	100 to 1000	100 to 1000	1000 to 10000	1000 to 10000	100 to 1000	100 to 1000	100 to 1000	100 to 1000	100 to 1000
CCn1c(-c2cccnc2[C@H](C)OC)c2c3cc(ccc31)-c1csc(n1)C[C@H](NC(=O)C1CCC1)C(=O)N1CCC[C@H](N1)C(=O)OCC(C)(C)C2 [Example A369]	100 to 1000	100 to 1000	100 to 1000	100 to 1000	100 to 1000	100 to 1000	100 to 1000	100 to 1000	1000 to 10000	100 to 1000	100 to 1000	100 to 1000	100 to 1000	100 to 1000
CCn1c(-c2cccnc2[C@H](C)OC)c2c3cc(ccc31)-c1csc(n1)C[C@H](NC(=O)[C@H](C(C)C)N1CCN(C)C1=O)C(=O)N1CCC[C@H](N1)C(=O)OCC(C)(C)C2 [Example A389]	10 to 100	1000 to 10000	100 to 1000	1000 to 10000	100 to 1000	1000 to 10000	100 to 1000	1000 to 10000	1000 to 10000	1000 to 10000	1000 to 10000	100 to 1000	1000 to 10000	10 to 100
CCn1c(-c2cccnc2[C@H](C)OC)c2c3cc(ccc31)-c1cc(O)cc(c1)C[C@H](NC(=O)[C@H](C(C)C)N(C)C(=O)C1CCC(C3CCCO3)O1)C(=O)N1CCC[C@H](N1)C(=O)OCC(C)(C)C2 (stereo partly drawn) [Example A396]	100 to 1000	10 to 100	10 to 100	10 to 100	10 to 100	10 to 100	10 to 100	10 to 100	100 to 1000	10 to 100	10 to 100	10 to 100	10 to 100	100 to 1000
CCn1c(-c2cc(N3CCN(C)CC3)cnc2[C@H](C)OC)c2c3cc(ccc31)-c1cc(O)cc(c1)C[C@H](NC(=O)[C@H](C1CCCC1)N(C)C(=O)[C@H]1OCC[C@H]1c1ccccc1)C(=O)N1CCC[C@H](N1)C(=O)OCC(C)(C)C2 [Example A423]	100 to 1000	100 to 1000	100 to 1000	100 to 1000	1000 to 10000	100 to 1000	100 to 1000	100 to 1000	100 to 1000	100 to 1000	100 to 1000	100 to 1000	10 to 100	100 to 1000

More lines, main results first:

IC50 (NCI-H358 (K-Ras G12C)) [nM]	IC50 (NRAS WT) [nM]	IC50 (KRAS Q61H) [nM]	IC50 (NRAS Q61R) [nM]	IC50 (NRAS Q61K) [nM]	IC50 (KRAS WT) [nM]	IC50 (NRAS G12C) [nM]	IC50 (KRAS G13D) [nM]	IC50 (KRAS G12D) [nM]	IC50 (KRAS G13C) [nM]	IC50 (KRAS G12S) [nM]	IC50 (KRAS G12C) [nM]	IC50 (KRAS G12V) [nM]	SMILES	IC50 (Capan-1 (K-Ras G12V)) [nM]
10 to 100	100 to 1000	100 to 1000	100 to 1000	100 to 1000	100 to 1000	100 to 1000	1000 to 10000	1000 to 10000	100 to 1000	100 to 1000	100 to 1000	100 to 1000	CCn1c(-c2cccnc2[C@H](C)OC)c2c3cc(ccc31)-c1csc(n1)C[C@H](NC(=O)[C@H](C(C)C)N(C)C(=O)N1CC(n3nc(C)cc3C)C1)C(=O)N1CCC[C@H](N1)C(=O)OCC(C)(C)C2 [Example A297]	100 to 1000
10 to 100	100 to 1000	100 to 1000	100 to 1000	100 to 1000	100 to 1000	100 to 1000	1000 to 10000	1000 to 10000	1000 to 10000	1000 to 10000	100 to 1000	1000 to 10000	CCn1c(-c2cccnc2[C@H](C)OC)c2c3cc(ccc31)-c1csc(n1)C[C@H](NC(=O)[C@H](C(C)C)N(C)C(=O)N1CC(C)(OC)C1)C(=O)N1CCC[C@H](N1)C(=O)OCC(C)(C)C2 [Example A299]	100 to 1000
10 to 100	10 to 100	10 to 100	10 to 100	10 to 100	10 to 100	10 to 100	100 to 1000	100 to 1000	10 to 100	10 to 100	10 to 100	10 to 100	CCn1c(-c2cccnc2[C@H](C)OC)c2c3cc(ccc31)-c1csc(n1)C[C@H](NC(=O)[C@H](C(C)C)N(C)C(=O)N1CCC(C(=O)C(F)(F)F)CC1)C(=O)N1CCC[C@H](N1)C(=O)OCC(C)(C)C2 [Example A422]	100 to 1000
10 to 100	100 to 1000	100 to 1000	100 to 1000	100 to 1000	100 to 1000	100 to 1000	100 to 1000	1000 to 10000	100 to 1000	100 to 1000	100 to 1000	100 to 1000	CCn1c(-c2cccnc2[C@H](C)OC)c2c3cc(ccc31)-c1csc(n1)C[C@H](NC(=O)[C@H](C(C)C)N(C)C(=O)N1CCC3(CC1)CN(C)CCO3)C(=O)N1CCC[C@H](N1)C(=O)OCC(C)(C)C2 [Example A433]	10 to 100
100 to 1000	1000 to 10000	100 to 1000	1000 to 10000	1000 to 10000	1000 to 10000	1000 to 10000	100 to 1000	1000 to 10000	1000 to 10000	1000 to 10000	1000 to 10000	1000 to 10000	CCn1c(-c2cccnc2[C@H](C)OC)c2c3cc(ccc31)-c1csc(n1)C[C@H](NC(=O)[C@H](C(C)C)N(C)C(=O)N1CC[C@]13CCCN(C)C3)C(=O)N1CCC[C@H](N1)C(=O)OCC(C)(C)C2 [Example A442]	1000 to 10000

From patent publication US20230233569A1 (Revolution Medicines, Inc., priority 2020, published 2023)
